From PMC11769286, “Nanoformulation of Polymyxin E Through Complex Coacervation: A Pharmacokinetic Analysis” (Pharmaceutics, 2025)
In brackets after ≈: the same amount, converted by molar mass. Positions of bridges follow the written chain, without caps; N, C: chain ends. Non-standard residues stand in square brackets, D forms with d. Residues, ends and D or L forms follow the SMILES beside them. *: point of attachment. Heptanoyl(5-Me) = CCC(C)CCCC(=O)*; Dab = NCC[C@H](N)C(=O)O

Experiments:
[1] = design: species or system SD rats; details: rat, in vivo, iv
CD-1 mice = assay: Determination of maximum tolerated dose (MTD); type: in vivo; details: male CD-1 mice, n = 3, tail vein, BID (q8h)
Experimental: CD-1 mice, male, 7–8 weeks old, weighing 25–30 g, were purchased from Shanghai Lingchang Laboratory Animal Co. The mice were grouped into n = 3, and different doses of PME were injected into the tail vein of mice via BID (q8h). HA2 prescription (HA2-2.6, HA2-2 and HA2-1.5) and SOP prescription (SOP-2.6, SOP-2 and SOP-1.5) were used for MTD examination.

Klebsiella pneumoniae = type: cell-based
Description: (§1) In line with the 2021 edition of the United States Clinical and Laboratory Standards Institute (CLSI) guidelines (https://clsi.org/), we employed the broth microdilution method to determine the MIC of the compounds against clinical Gram-negative bacilli. We tested 23 strains of Escherichia coli, including 12 carbapenem-sensitive and 11 drug-resistant strains, and 22 strains of Klebsiella pneumoniae, including 12 carbapenem-sensitive and 10 drug-resistant strains. Additionally, we assessed 20 strains of Acinetobacter baumannii, again including 10 carbapenem-sensitive and 10 drug-resistant strains, and 21 strains of Pseudomonas aeruginosa. Quality control strains used were Escherichia coli ATCC 25922 and Pseudomonas aeruginosa ATCC 27853 [20]. For the preparation of antimicrobial agents, we dissolved seven batches of the test drug in 3 mL of water and subsequently diluted it to a concentration of 500 mg/L. The control drug was prepared according to CLSI requirements. The antibacterial solutions were tested over a concentration range spanning from 0.015 mg/L to 32 mg/L. We utilized cation-adjusted Mueller–Hinton broth (CAMHB) from BD Company, with lot number 9324795.
(§2) Regarding bacterial inoculation, we selected fresh, pure bacterial colonies from Columbia blood agar using the direct colony suspension method, resulting in a turbidity of 0.5 McFarland units. This suspension was then appropriately diluted, yielding a final bacterial concentration of 10^5 CFU/mL. Culturing conditions involved incubation in ambient air at 35 ± 2 °C for a duration of 16–20 h. Results were interpreted in accordance with the European EUCAST breakpoint criteria, where PME sensitivity was defined as ≤2 mg/L and resistance as ≥4 mg/L. Criteria for assessing other tested drugs were provided by the party commissioning the study. The MIC value represented the minimum drug concentration necessary to inhibit bacterial growth. Data analysis was performed using WHONET 5.6 software for statistical evaluation of the drug susceptibility test results.

Acinetobacter baumannii = type: cell-based
Description: as §1, §2

[2] = tested on: A. Baumannii ATCC BAA-1605; details: 8 mpk BID q12h, tail vein; 24 h after infection
Experimental: CD-1 mice (SPF grade, female, 7 weeks old, 27–29 g) were provided by Zhejiang Weitong Lihua Laboratory Animal Technology Co., Ltd. A. Baumannii ATCC BAA-1605 was provided by Nantong Wuxi Apptec Medical Technology Co., Ltd. (Nanjing, China). Experimental animals were admitted to Wuxi AppTec BSL-2 animal facility and subjected to an adaptation period of at least 3 to 4 days. Immunosuppressed mice with neutrophil deficiency were prepared by intraperitoneal injection of cyclophosphamide (150 mg/kg at day -4; 100 mg/kg at day -1). On day 0, the infected bacterial solution was inoculated by intramuscular injection, and 0.1 mL of the bacterial solution was inoculated into the right thigh of each mouse. At 2 h and 24 h after infection, the PME formulations were administered by tail vein according to the experimental protocol. Animals in the blank group were euthanized 2 h after infection. The right thighs of those mice were collected and homogenized. The diluent was cultured overnight and CFUs were counted the next day. Animals in the negative control group and other treatment groups were euthanized 24 h after infection. […] The diluent was cultured overnight and CFUs were counted the next day. […]
The dosages were calculated based on the weight of the mice, and different dosage levels were achieved by adjusting the drug volume accordingly.

in vivo = details: SD, rat
[3] = rat, in vivo

In the case of `CCC(C)CCCC(=O)N[C@@H](CCN)C(=O)N[C@H](C(=O)N[C@@H](CCN)C(=O)N[C@H]1CCNC(=O)[C@H]([C@@H](C)O)NC(=O)[C@H](CCN)NC(=O)[C@H](CCN)NC(=O)[C@H](CC(C)C)NC(=O)[C@@H](CC(C)C)NC(=O)[C@H](CCN)NC1=O)[C@@H](C)O` (stereo partly drawn) ({Heptanoyl(5-Me)}-[Dab]T[Dab][Dab][Dab][dL]L[Dab][Dab]T; lactam 4-C), the gastric mucosal bleeding [1] is reported as “showed gastric mucosal bleeding”, the “MTD / tolerated dose” value (CD-1 mice) is reported as 10 mpk and the MIC50 (Klebsiella pneumoniae) is reported as 0.5 µg/mL (≈ 0.433 µM). The MIC50 (Acinetobacter baumannii) was 0.5 µg/mL (≈ 0.433 µM), the MIC range (Acinetobacter baumannii) was 0.5 to 1 µg/mL and the “change of bacterial levels” value [2] was “did not increase bacterial levels”. It also gave an AUC(0-inf) (in vivo) of 12300 ± 2120 ng·h/mL, a Cmax (in vivo) of 10300 ± 1780 ng/mL and an MRT (in vivo) of 1.63 ± 0.15 h. For the same compound, the Tmax (in vivo) was 4.8 min, the Vd (in vivo) was 0.404 ± 0.0545 L/kg and the clearance (in vivo) was 4.16 ± 0.78 mL/min/kg. For the same compound, the half-life (in vivo) was 1.33 ± 0.05 h and the “intersection point between distribution phase and elimination phase” value [3] was 0.5 h.
